Measurements: patent US8871753B2, “Macrocyclic compounds and their use as kinase inhibitors” (Incyte Corporation, priority 2008, dated 2014)
pIC50: −log10 of the molar value. Counter-ions that a name gives are not always drawn. Like-named read-outs stand apart in the source and are kept apart here.

Legend:
Type in all cases: biochemical
[1] = biological target: TYK2 (Homo sapiens, UniProt P29597); experiment: TYK2 kinase inhibition (Table A1)
[2] = biological target: T1, human JAK3 (a.a. 781-1124) (Homo sapiens, UniProt P52333); experiment: In vitro JAK kinase assay (HTRF, phosphorylation of a biotinylated peptide), JAK3
T1 construct: JAK3 (a.a. 781-1124); His tag (N); made in house; host or cells: insect cells (baculovirus)
T1 sequence (P52333 781-1124): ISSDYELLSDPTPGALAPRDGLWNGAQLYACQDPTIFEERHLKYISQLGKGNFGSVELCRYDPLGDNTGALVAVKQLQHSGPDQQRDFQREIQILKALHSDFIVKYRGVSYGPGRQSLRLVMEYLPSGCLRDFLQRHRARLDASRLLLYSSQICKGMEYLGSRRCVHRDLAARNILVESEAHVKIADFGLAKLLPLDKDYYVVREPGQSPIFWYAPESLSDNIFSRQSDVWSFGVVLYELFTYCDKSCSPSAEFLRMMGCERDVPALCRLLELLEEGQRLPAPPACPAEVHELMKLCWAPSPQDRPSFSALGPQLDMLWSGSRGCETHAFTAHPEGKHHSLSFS
Summary of the method: (§1)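 Kinase activity was measured as phosphorylation of a biotinylated peptide, with ATP at 90 μM for JAK1, 30 μM for JAK2 and 3 μM for JAK3. Reactions ran 1 hr at room temperature, were stopped with EDTA plus SA-APC and Eu-Py20, and were read by HTRF after 40 minutes of antibody binding.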

[3] = biological target: T2, Recombinant Human Anaplastic Lymphoma Kinase (Homo sapiens, UniProt Q9UM73); experiment: ALK HTRF kinase assay; conditions: for ALK % of inhibition at a concentration of 500 nM or 1 mM: compound at 500 nM or 1 mM
T2 construct: purchased Invitrogen, Carlsbad, Calif
T2 sequence (Q9UM73 19-1620): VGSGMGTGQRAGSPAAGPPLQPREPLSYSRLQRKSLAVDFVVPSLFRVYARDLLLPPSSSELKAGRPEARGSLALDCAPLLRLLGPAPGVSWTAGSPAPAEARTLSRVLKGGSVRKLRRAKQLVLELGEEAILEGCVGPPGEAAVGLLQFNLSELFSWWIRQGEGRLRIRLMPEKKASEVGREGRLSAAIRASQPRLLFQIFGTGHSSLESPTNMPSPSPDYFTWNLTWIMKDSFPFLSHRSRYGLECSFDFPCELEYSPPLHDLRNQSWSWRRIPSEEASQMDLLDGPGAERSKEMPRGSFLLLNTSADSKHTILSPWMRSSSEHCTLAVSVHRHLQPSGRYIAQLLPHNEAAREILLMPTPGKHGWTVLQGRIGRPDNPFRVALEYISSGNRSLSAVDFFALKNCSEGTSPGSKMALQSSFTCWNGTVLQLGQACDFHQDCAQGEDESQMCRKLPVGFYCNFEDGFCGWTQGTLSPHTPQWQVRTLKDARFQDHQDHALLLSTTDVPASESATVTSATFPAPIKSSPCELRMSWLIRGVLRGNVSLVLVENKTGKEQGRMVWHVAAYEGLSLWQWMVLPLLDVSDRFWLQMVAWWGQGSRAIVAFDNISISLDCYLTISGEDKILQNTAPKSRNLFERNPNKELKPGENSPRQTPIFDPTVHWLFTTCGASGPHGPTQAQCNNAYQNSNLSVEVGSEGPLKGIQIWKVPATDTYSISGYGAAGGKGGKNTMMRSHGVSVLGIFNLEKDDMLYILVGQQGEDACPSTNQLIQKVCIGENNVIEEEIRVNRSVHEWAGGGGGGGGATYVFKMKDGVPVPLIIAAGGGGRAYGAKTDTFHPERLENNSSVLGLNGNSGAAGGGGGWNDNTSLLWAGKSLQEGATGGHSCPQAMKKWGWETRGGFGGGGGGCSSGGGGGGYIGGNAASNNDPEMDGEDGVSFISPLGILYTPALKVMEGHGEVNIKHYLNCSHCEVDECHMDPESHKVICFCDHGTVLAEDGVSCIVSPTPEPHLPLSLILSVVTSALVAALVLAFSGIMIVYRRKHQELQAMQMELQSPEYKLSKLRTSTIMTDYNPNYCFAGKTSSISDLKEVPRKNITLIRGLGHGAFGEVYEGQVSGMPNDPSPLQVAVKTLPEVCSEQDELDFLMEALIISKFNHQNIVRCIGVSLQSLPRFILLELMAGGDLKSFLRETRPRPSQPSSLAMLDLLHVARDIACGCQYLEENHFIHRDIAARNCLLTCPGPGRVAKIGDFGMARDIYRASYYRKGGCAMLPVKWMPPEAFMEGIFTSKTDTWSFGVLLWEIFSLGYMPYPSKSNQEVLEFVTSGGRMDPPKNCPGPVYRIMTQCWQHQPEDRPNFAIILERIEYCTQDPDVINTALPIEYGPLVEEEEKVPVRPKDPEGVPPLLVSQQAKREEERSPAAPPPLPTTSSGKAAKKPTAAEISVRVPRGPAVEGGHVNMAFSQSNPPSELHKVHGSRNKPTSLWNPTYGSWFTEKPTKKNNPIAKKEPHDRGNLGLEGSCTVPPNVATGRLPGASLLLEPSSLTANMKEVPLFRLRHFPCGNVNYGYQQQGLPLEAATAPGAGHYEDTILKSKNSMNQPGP
Summary of the method: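 Recombinant human ALK phosphorylated a biotinylated synthetic peptide. Phosphotyrosine was detected by TR-FRET between a Eu-labelled anti-phosphotyrosine antibody and streptavidin-allophycocyanin. IC50 values came from fitting signal against inhibitor concentration to a four-parameter logistic equation with variable Hill slope.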

[4] = biological target: T3, human JAK1 (a.a. 837-1142) (Homo sapiens, UniProt P23458); experiment: In vitro JAK kinase assay (HTRF, phosphorylation of a biotinylated peptide), JAK1; conditions: read-out: JAK1 IC50
T3 construct: human JAK1 (a.a. 837-1142); His tag (N); made in house; host or cells: insect cells (baculovirus)
T3 sequence (P23458 849-1154): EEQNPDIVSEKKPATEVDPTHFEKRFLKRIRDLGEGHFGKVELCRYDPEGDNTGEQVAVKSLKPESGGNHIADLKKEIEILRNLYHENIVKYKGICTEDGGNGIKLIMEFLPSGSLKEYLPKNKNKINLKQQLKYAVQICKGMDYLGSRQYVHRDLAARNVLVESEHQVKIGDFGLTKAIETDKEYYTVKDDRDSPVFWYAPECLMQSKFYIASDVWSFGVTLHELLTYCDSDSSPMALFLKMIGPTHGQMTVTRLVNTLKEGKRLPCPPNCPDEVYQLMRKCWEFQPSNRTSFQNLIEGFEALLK
Summary of the method: as §1

[5] = biological target: T4, human JAK2 (a.a. 828-1132) (Homo sapiens, UniProt O60674); experiment: In vitro JAK kinase assay (HTRF, phosphorylation of a biotinylated peptide), JAK2
T4 construct: JAK2 (a.a. 828-1132); His tag (N); made in house; host or cells: insect cells (baculovirus)
T4 sequence (O60674 828-1132): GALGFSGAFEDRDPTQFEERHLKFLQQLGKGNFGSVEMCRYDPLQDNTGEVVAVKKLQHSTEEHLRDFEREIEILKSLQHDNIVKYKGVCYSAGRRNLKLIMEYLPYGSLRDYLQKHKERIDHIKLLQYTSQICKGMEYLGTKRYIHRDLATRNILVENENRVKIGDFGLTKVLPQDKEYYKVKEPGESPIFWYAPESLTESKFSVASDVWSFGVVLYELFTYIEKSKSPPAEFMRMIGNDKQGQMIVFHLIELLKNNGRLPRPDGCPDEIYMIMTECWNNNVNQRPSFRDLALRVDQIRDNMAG
Summary of the method: as §1

[6] = method AA1 (3 μM ATP) or AA2 (1000 μM ATP), not stated per value
[7] = method AA1 (90 μM ATP) or AA2 (1000 μM ATP), not stated per value
[8] = method AA1 (30 μM ATP) or AA2 (1000 μM ATP), not stated per value

TYK2, sequence (P29597 whole entry): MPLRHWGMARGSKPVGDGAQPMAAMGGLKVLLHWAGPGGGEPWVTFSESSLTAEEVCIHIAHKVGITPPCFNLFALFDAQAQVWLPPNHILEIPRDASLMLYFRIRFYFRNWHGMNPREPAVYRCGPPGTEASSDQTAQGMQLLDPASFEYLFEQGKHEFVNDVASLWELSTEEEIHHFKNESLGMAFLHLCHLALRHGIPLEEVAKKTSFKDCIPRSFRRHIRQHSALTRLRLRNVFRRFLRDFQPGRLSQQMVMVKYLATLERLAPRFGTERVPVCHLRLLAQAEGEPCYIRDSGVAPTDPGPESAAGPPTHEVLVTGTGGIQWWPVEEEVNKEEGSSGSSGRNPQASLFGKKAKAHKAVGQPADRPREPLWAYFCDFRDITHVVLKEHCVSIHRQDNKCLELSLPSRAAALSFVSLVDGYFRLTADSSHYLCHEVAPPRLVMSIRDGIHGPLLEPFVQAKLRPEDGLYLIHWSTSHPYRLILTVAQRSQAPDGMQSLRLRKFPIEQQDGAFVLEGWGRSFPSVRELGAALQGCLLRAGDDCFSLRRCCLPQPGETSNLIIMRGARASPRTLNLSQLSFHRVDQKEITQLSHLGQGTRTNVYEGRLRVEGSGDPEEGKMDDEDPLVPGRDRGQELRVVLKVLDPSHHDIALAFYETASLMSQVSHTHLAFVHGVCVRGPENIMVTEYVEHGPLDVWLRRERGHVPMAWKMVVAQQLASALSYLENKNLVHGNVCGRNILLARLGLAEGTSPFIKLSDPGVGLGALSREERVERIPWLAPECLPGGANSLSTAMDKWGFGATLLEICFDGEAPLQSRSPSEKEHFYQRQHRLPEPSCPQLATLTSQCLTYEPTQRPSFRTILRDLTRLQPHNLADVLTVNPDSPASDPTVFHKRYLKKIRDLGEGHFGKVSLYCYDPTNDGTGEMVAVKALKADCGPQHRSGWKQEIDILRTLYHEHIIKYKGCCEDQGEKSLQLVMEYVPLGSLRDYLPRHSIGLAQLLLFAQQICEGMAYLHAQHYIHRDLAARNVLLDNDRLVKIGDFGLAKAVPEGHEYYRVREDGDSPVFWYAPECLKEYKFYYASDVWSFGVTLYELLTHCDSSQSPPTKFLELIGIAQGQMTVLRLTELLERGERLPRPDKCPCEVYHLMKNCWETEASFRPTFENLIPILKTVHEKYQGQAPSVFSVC

pIC50 [1]	pIC50 [2, 6]	ALK % of inhibition at a concentration of 500 nM or 1 mM ([3]; 90 μM ATP) [%]	pIC50 [4, 7]	pIC50 [5, 8]	SMILES	further results
< 6.70	< 6.70	26	7.13	< 6.70	CC(C)c1oncc1C(=O)N1CCC(CC(=O)Nc2ccc3cc2CCc2cncc(c2)Nc2ncc(Cl)c(n2)N3)CC1 [Example A218, N-[6-Chloro-2,4,8,18,22-pentaazatetracyclo[14.3.1.1(3,7).1(9,13)]docosa-1(20),3(22),4,6,9(21),10,12,16,18-nonaen-12-yl]-2-{1-[(5-isopropylisoxazol-4-yl)carbonyl]piperidin-4-yl}acetamide bis(trifluoroacetate)]	–
–	–	–	–	–	O=S(=O)(Nc1cc2cc(c1)OCCSc1cccc(c1)Nc1nc(ncc1Cl)N2)c1ccccc1 [Example D68, N-[6-Chloro-17-oxa-14-thia-2,4,8,24-tetraazatetracyclo[16.3.1.1(3,7).1(9,13)]tetracosa-1(22),3(24),4,6,9(23),10,12,18,20-nonaen-20-yl]benzenesulfonamide trifluoroacetate]	pIC50 ([1]; Table D1): 7.49; pIC50 ([2]; Table D1): 7.44; pIC50 ([3]; Table D1, 90 μM ATP): 6.47; pIC50 ([4]; Table D1): 7.85; pIC50 ([5]; Table D1): 8.24
9.52	8.49	51	9.70	9.70	NS(=O)(=O)N1CCC(CC(=O)Nc2ccc3cc2CCc2cccc(c2)Nc2ncc(Cl)c(n2)N3)CC1 [Example A75, 2-[1-(Aminosulfonyl)piperidin-4-yl]-N-[6-chloro-2,4,8,22-tetraazatetracyclo[14.3.1.1(3,7).1(9,13)]docosa-1(20),3(22),4,6,9(21),10,12,16,18-nonaen-12-yl]acetamide trifluoroacetate]	–
–	–	–	–	–	CC(=O)N1CCN(c2ccc(-c3cc4cc(c3)Nc3ncc(Cl)c(n3)Nc3cccc(c3)OCC4)cn2)CC1 [Example D37, 19-[6-(4-Acetylpiperazin-1-yl)pyridin-3-yl]-6-chloro-14-oxa-2,4,8,23-tetraazatetracyclo[15.3.1.1(3,7).1(9,13)]tricosa-1(21),3(23),4,6,9(22),10,12,17,19-nonaene tris(trifluoroacetate)]	pIC50 ([1]; Table D1): 8.85; pIC50 ([2]; Table D1): 8.00; pIC50 ([3]; Table D1, 90 μM ATP): 6.61; pIC50 ([4]; Table D1): 9.05; pIC50 ([5]; Table D1): 9.15
< 6.40	< 6.40	17	7.80	6.65	Cc1cc(C)c(C#N)c(N2CCC(CC(=O)Nc3ccc4cc3CCc3cncc(c3)Nc3ncc(Cl)c(n3)N4)CC2)n1 [Example A239, N-[6-Chloro-2,4,8,18,22-pentaazatetracyclo[14.3.1.1(3,7).1(9,13)]docosa-1(20),3(22),4,6,9(21),10,12,16,18-nonaen-12-yl]-2-[1-(3-cyano-4,6-dimethylpyridin-2-yl)piperidin-4-yl]acetamide tris(trifluoroacetate)]	–
–	–	–	–	–	COC(=O)c1ccc2cc1CCc1cccc(c1)Nc1ncc(Cl)c(n1)N2 [Example B22, Methyl 6-chloro-2,4,8,22-tetraazatetracyclo[14.3.1.1(3,7).1(9,13)]docosa-1(20),3(22),4,6,9(21),10,12,16,18-nonaene-12-carboxylate trifluoroacetate]	pIC50 ([1]; Table B1): 7.39; pIC50 ([2]; Table B1): 6.98; pIC50 ([3]; Table B1, cells without percent sign): 5.84; pIC50 ([4]; Table B1): 6.84; pIC50 ([5]; Table B1): 7.96
7.46	7.59	–	7.92	8.03	Clc1cnc2nc1Nc1cccc(c1)CCc1cccc(c1)N2 [Example A2, 6-Chloro-2,4,8,22-tetraazatetracyclo[14.3.1.1(3,7).1(9,13)]docosa-1(20),3(22),4,6,9(21),10,12,16,18-nonaene trifluoroacetate]	pIC50 ([3]; 90 μM ATP): 6.18
6.94	6.84	0	7.13	7.38	Clc1cnc2nc1Nc1ccc(OC3CCCC3)c(c1)CCc1cccc(c1)N2 [Example A14, 6-Chloro-12-(cyclopentyloxy)-2,4,8,22-tetraazatetracyclo[14.3.1.1(3,7).1(9,13)]docosa-1(20),3(22),4,6,9(21),10,12,16,18-nonaene trifluoroacetate]	–
